Legend:
[1] = Oxidizer (PAA, hydrogen peroxide) concentration in treatment solution during biofilm test; assay type: physicochemical; details: initial 100 ppm
Description: (§1) Upon completion of the biofilm growth phase, the coupons were removed and rinsed by immersion into 30 mL dilution buffer. Coupons were placed into sterile centrifuge test tubes and 4 mL biocide or buffer were added. Then the tubes were vortexed on low speed to ensure complete coverage of the coupon. At the appropriate time, the biocide was poured off, and reserved for chemical analysis of PAA and hydrogen peroxide. Then, a 10 mL aliquot of chemical neutralizing Letheen broth with 0.5% sodium thiosulfate was added to each tube. One treated coupon from each treatment group was removed at final time point for visual analysis.
PAA and Hydrogen peroxide concentrations were monitored during the test by using Chemetrics test kits K-7913F and K-5543.
We further evaluated the biocidal activity of PAA-surfactant solutions on microbial biofilms using a CDC Biofilm reactor from BioSurface Technologies as described in Example 9. The three biocide solutions were also as described in Example 9, but the contact time was increased to about 72 hours under agitation. Additionally, for this test, the biocide aliquot was increased from the standard method amount of 4 mL up to 30 mL. These adjustments were made to more accurately simulate expected field conditions. The recovery was performed as described in the Example 8. […] Chemical analysis indicated only a slight reduction in concentrations of both PAA and hydrogen peroxide over the 72-hour time period.

[2] = test system: Pseudomonas aeruginosa (ATCC 15442) biofilm; experiment: Biocidal activity on biofilm, CDC Biofilm reactor, glass coupons, 1-4 hrs; assay type: cell-based; details: initial 100 ppm
From the text: We evaluated the biocidal activity of PAA-surfactant solutions on microbial biofilms using a CDC Biofilm reactor from BioSurface Technologies. This reactor supplies a continuous flow of nutrient broth through a container that exposes bacteria growing on glass coupons to shear forces. The setup mimics at least two features typical for oilfield operations: a renewable nutrient source and shear forces applied to the biofilms. All reactor parts were cleaned with a solution of 1% Neutrad lab soap and rinsed well with deionized water, and allowed to dry prior to autoclaving on a 20 minutes gravity cycle to sterilize.
Pseudomonas aeruginosa (ATCC 15442) biofilm was grown for 48 hours in the biofilm reactor on glass coupons at 25° C. A solution containing 300 mg/L of sterile trypticase soy broth (TSB) was used as nutrient feed. 1 mL of the working inoculum of P. aeruginosa was added through the inoculation port. The first step was a 24 hours batch phase followed by 24 hours in continuous flow mode, when 100 mg/L TSB solution was pumped into the stirring reactor for about 24 hours at room temperature to create a matured biofilm on the coupon surfaces.
as §1
The compositions were diluted with deionized water before use, such that the initial concentration of PAA-surfactant active ingredient was 100 ppm.
In order to recover remaining viable bacteria from the coupons, the test tubes with coupons were vortexed for 30 s on highest setting, and then sonicated for 30 s at 45 kHz. This treatment was then repeated twice. After that, the broth was diluted serially into Butterfield's buffer, and the dilutions plated on 3M™ Petrifilm™ Aerobic Count Plates. The plates were incubated for 48 hours at 35° C., and then counted. Calculations were performed to obtain the Log10 CFU/mL of the solutions at each time point.

CC(=O)OO [PAA, peracetic acid]
H2O2, ppm ([1]; 1 hrs): 35 ppm | PAA, ppm ([1]; 1 hrs): 63 ppm | H2O2, ppm ([1]; 2 hrs): 27 ppm | PAA, ppm ([1]; 2 hrs): 54 ppm | H2O2, ppm ([1]; 4 hrs): 10 ppm | PAA, ppm ([1]; 4 hrs): 30 ppm | Log10 reduction ([2]; 1 hrs): 1.4 Log10 | Log10 remaining ([2]; 1 hrs): 7.8 Log10 CFU/mL | Log10 reduction ([2]; 2 hrs): 2.2 Log10 | Log10 remaining ([2]; 2 hrs): 7.0 Log10 CFU/mL | Log10 reduction ([2]; 4 hrs): 3.1 Log10 | Log10 remaining ([2]; 4 hrs): 6.1 Log10 CFU/mL
